Results reported in patent US11618738B2, “Compound and application thereof in treating inflammation or inflammation-related diseases” (SICHUAN CENTER FOR TRANSLATIONAL MEDICINE OF TRADITIONAL …, priority 2017, dated 2023).
Marks after values point to notes of the source that are not given here.

Key:
[1] = test system: xylene-induced ear swelling in mice; test: Xylene-induced ear swelling in mice; assay type: in vivo; settings: for Swelling rate (%): 20 minutes after xylene, mean ± SD; for ear swelling rate versus normal group (in words): the three dose groups (6.25, 12.5, 25 mg/kg)
From the text: Xylene applied to the ears of mice can cause acute inflammatory swelling of the ears of the mice. The anti-inflammatory effects of the tested drugs were observed by the degree of swelling of the ears of the mice after the inflammation.
Taking Kunming mice, SPF grade, half male and half […] (18-22 g/mouse) and randomly grouping them according to body weight. The normal control group was given 0.5% CMC-Na suspension by gavage administration, and the other groups were given corresponding drugs (0.2 ml/10 g) for 3 consecutive days, once a day. 0.5 h after the last administration, 0.02 ml of xylene was applied to the right auricle of each group of mice, and the left side was not applied as a control, establishing a mouse ear swelling model. 20 minutes after the inflammation, the mice were killed by cervical dislocation. Both ears were cut along the baseline of the auricle, and the discs on the same part of the left and right ears were punched out with a punch (6 mm of diameter) and weighed.

[2] = test system: acute gouty arthritis in rats induced by sodium urate crystals; test: Foot swelling in rats with acute gouty arthritis induced by sodium urate crystals; assay type: in vivo; settings: for foot volume compared with the model group (in words): medium- and high-dose groups, 24 h and 48 h after injection of sodium urate crystals
Procedure: Injecting sodium urate crystals into the joint cavity to establish an acute gouty arthritis model. Its pathological and clinical manifestations are very similar. It is a classic method commonly used in animal experiments to study gouty arthritis. This experiment will explore the effects of UTLOH series drugs on animals with acute gouty arthritis induced by sodium urate.
SPF grade SD rats, half female and half male (200-220 g/mouse), were randomly grouped by weight. The drug was administered once a day, for 3 consecutive days. […] Rats in the normal group were injected with an equal volume of sterile saline to the back of the right ankle joint. The administration was continued after modeling, once a day for 3 consecutive days. The ankle joint and foot volume of the rats in each group were measured respectively before modeling and 2 h, 4 h, 8 h, 24 h and 48 h after modeling.

[3] = test system: 10% egg white-induced foot swelling in rats; test: 10% egg white-induced foot swelling in rats; assay type: in vivo; settings: for Foot swelling: mean ± SD
From the text: Injecting 10% egg white into rat paws can cause early acute inflammation such as redness, heat, swelling, and pain in rat paws. In this experiment, the anti-inflammatory effects of UTLOH series compounds were observed by the degree of swelling of the paws of rats after inflammation.
SPF grade SD rats, half female and half male (100-120 g/mouse) were randomly grouped according to body weight. Each group was given the corresponding drugs by gavage, once a day, for 3 consecutive days, with a gavage volume of 1 ml/100 g. Before the experiment, the ankle joint of the right hind foot of each group of rats was marked, and the foot volume of each group of rats was measured twice with a rat foot volume meter, and the average of the two times was taken as the […]. 30 minutes after the last administration, the rats in each group were given a subcutaneous needle in the right hind paw, and injected with 10% fresh egg white solution 0.1 ml/mouse to cause inflammation, establishing a rat model of paw swelling. The post-inflamed foot volume in mice was measured twice at 1 h, 2 h, 3 h, and 4 h after inflammation, and the average of the two times was taken as the post-inflamed foot volume. The normal group was given 1 ml/100 g volume of 0.5% CMC-Na solution by gavage according to body weight.

PGE2 induced by LPS = test: Inhibition of LPS-induced PGE2 in RAW 264.7 cells (ELISA); assay type: cell-based, mice
Procedure: This example is taken from a previous publication by Song et al.^[1]. In brief, mice RAW 264.7 cells were treated with increasing doses of each test compound at 37° C. for 1 hour. Thereafter, the cells were attacked with 20 μL/well of LPS (equivalent to a final concentration of 100 ng/mL). The cells were further incubated overnight at 37° C. A commercial ELISA assay kit obtained from R&D Systems (Minneapolis, Minn.) was used to determine the level of PGE2 in the supernatant, and three parallel experiments were performed. The optical density of each well was measured using a BioTek Epoch microplate reader (Winooski, Vt.) set to 450 nm. The NO study was performed in a similar manner, but Greiss reagent was used to monitor the level of NO, and the results were read at 550 nm.

hot plate pain in mice = test: Hot plate pain threshold in mice; assay type: in vivo; settings: for Percentage increase in pain threshold (%): mean ± SD
Procedure: The hot plate method uses a certain intensity of warm heat to stimulate mice to produce pain reaction. This experiment observes the analgesic effect of UTLOH series compounds.
Female SPF-grade Kunming mice (18-22 g/mouse) were put in a hot plate apparatus at a temperature of 55±0.5° C., and the pain threshold of the mice was measured. The measurement was performed twice, and the measurement was performed every 5 minutes. Taking the mouse licking hind feet as the observation index. The mice with pain response within 30 s were selected as experimental animals. The pre-selected qualified mice were randomly grouped according to their body weight. The blank group was intraperitoneally injected with 0.2 ml/10 g body weight of normal saline, and the other groups were intraperitoneally injected with corresponding drugs. The pain threshold was measured 30 and 60 minutes after the administration. If the mouse had no pain within 60 seconds, it was taken out immediately and calculated at 60 seconds.

[4] = 6.25 mg/kg once a day for 3 days
[5] = 12.5 mg/kg once a day for 3 days
[6] = 10 mg/kg once a day, 2 h after modeling, mean ± SD
[7] = 10 mg/kg once a day, 4 h after modeling, mean ± SD
[8] = 10 mg/kg once a day, 8 h after modeling, mean ± SD
[9] = 10 mg/kg once a day, 24 h after modeling, mean ± SD
[10] = 10 mg/kg once a day, 48 h after modeling, mean ± SD
[11] = 20 mg/kg once a day, 2 h after modeling, mean ± SD
[12] = 20 mg/kg once a day, 4 h after modeling, mean ± SD
[13] = 20 mg/kg once a day, 8 h after modeling, mean ± SD
[14] = 20 mg/kg once a day, 24 h after modeling, mean ± SD
[15] = 20 mg/kg once a day, 48 h after modeling, mean ± SD
[16] = 40 mg/kg once a day, 2 h after modeling, mean ± SD
[17] = 40 mg/kg once a day, 4 h after modeling, mean ± SD
[18] = 40 mg/kg once a day, 8 h after modeling, mean ± SD
[19] = 40 mg/kg once a day, 24 h after modeling, mean ± SD
[20] = 40 mg/kg once a day, 48 h after modeling, mean ± SD
[21] = 10 mg/kg gavage once a day for 3 days, 1 h after inflammation
[22] = 10 mg/kg gavage once a day for 3 days, 2 h after inflammation
[23] = 10 mg/kg gavage once a day for 3 days, 3 h after inflammation
[24] = 10 mg/kg gavage once a day for 3 days, 4 h after inflammation
[25] = 20 mg/kg gavage once a day for 3 days, 1 h after inflammation
[26] = 20 mg/kg gavage once a day for 3 days, 2 h after inflammation
[27] = 20 mg/kg gavage once a day for 3 days, 3 h after inflammation
[28] = 20 mg/kg gavage once a day for 3 days, 4 h after inflammation
[29] = 40 mg/kg gavage once a day for 3 days, 1 h after inflammation
[30] = 40 mg/kg gavage once a day for 3 days, 2 h after inflammation
[31] = 40 mg/kg gavage once a day for 3 days, 3 h after inflammation
[32] = 40 mg/kg gavage once a day for 3 days, 4 h after inflammation
[33] = 25 mg/kg intraperitoneal, 30 min after administration
[34] = 25 mg/kg intraperitoneal, 60 min after administration
[35] = 50 mg/kg intraperitoneal, 30 min after administration
[36] = 100 mg/kg intraperitoneal, 30 min after administration
[37] = 100 mg/kg intraperitoneal, 60 min after administration
[38] = 200 mg/kg intraperitoneal, 30 min after administration
[39] = 200 mg/kg intraperitoneal, 60 min after administration

Cc1cc(C(=O)Nc2ccc(O)cc2O)no1 [UTLOH-4e]
Swelling rate (%) [1, 4]: 53.22 ± 28.01 %
Swelling rate (%) [1, 5]: 42.98 ± 23.60 %
Swelling rate (%) ([1]; 25 mg/kg once a day for 3 days): 41.29 ± 21.75 %
dose dependence of ear swelling rate (in words) ([1]; the higher the dose, the lower the ear swelling rate): good dose-dependent
ear swelling rate versus normal group (in words) [1]: significantly lower
Foot swelling [2, 6]: 0.28 ± 0.09 mL
Foot swelling [2, 7]: 0.34 ± 0.07 mL
Foot swelling [2, 8]: 0.33 ± 0.11 mL
Foot swelling [2, 9]: 0.22 ± 0.12 mL
Foot swelling [2, 10]: 0.05 ± 0.07 mL
Foot swelling [2, 11]: 0.18 ± 0.07 mL
Foot swelling [2, 12]: 0.24 ± 0.06 mL
Foot swelling [2, 13]: 0.19 ± 0.07 mL
Foot swelling [2, 14]: 0.19 ± 0.12 mL
Foot swelling [2, 15]: 0.09 ± 0.08 mL
Foot swelling [2, 16]: 0.20 ± 0.08 mL
Foot swelling [2, 17]: 0.25 ± 0.05 mL
Foot swelling [2, 18]: 0.19 ± 0.10 mL
Foot swelling [2, 19]: 0.22 ± 0.07 mL
Foot swelling [2, 20]: 0.09 ± 0.12 mL
foot volume compared with the model group (in words) ([2]; 2 h, 4 h, 8 h): significantly reduce
Foot swelling [3, 21]: 0.67 ± 0.15 mL
Foot swelling [3, 22]: 0.66 ± 0.15 mL
Foot swelling [3, 23]: 0.60 ± 0.16 mL
Foot swelling [3, 24]: 0.44 ± 0.07 mL
Foot swelling [3, 25]: 0.69 ± 0.08 mL
Foot swelling [3, 26]: 0.55 ± 0.13 mL
Foot swelling [3, 27]: 0.51 ± 0.09 mL
Foot swelling [3, 28]: 0.38 ± 0.12 mL
Foot swelling [3, 29]: 0.69 ± 0.13 mL
Foot swelling [3, 30]: 0.57 ± 0.17 mL
Foot swelling [3, 31]: 0.49 ± 0.15 mL
Foot swelling [3, 32]: 0.45 ± 0.16 mL
foot swelling degree compared with the normal group (in words) ([3]; low-dose group, 1 h after inflammation): significantly reduced
foot swelling degree compared with the normal group (in words) ([3]; medium-dose group and high-dose group, 1 h, 2 h and 3 h after inflammation): significantly reduced
PGE2 inhibition rate (in words) (PGE2 induced by LPS; same experimental method as Table 1): very good
percentage increase in the pain threshold, hot plate (in words) (hot plate pain in mice; 25 mg/kg and 200 mg/kg, 30 minutes after administration): significantly reduce
Percentage increase in pain threshold (%) (hot plate pain in mice; [33]): −17.71 ± 38.50 %
Percentage increase in pain threshold (%) (hot plate pain in mice; [34]): −2.76 ± 34.01%
Percentage increase in pain threshold (%) (hot plate pain in mice; [35]): −3.15 ± 46.73%
Percentage increase in pain threshold (%) (hot plate pain in mice; 50 mg/kg intraperitoneal, 60 min after administration): 8.36 ± 84.14%
Percentage increase in pain threshold (%) (hot plate pain in mice; [36]): 15.50 ± 103.74%
Percentage increase in pain threshold (%) (hot plate pain in mice; [37]): −11.18 ± 85.76%
Percentage increase in pain threshold (%) (hot plate pain in mice; [38]): −28.73 ± 28.36 %
Percentage increase in pain threshold (%) (hot plate pain in mice; [39]): −16.72 ± 40.12%

Cc1cc(C(=O)Nc2ccccc2O)no1 [UTLOH-4a]
Swelling rate (%) [1, 4]: 49.77 ± 22.15 %
Swelling rate (%) [1, 5]: 50.59 ± 21.52 %
Swelling rate (%) ([1]; 25 mg/kg once a day for 3 days): 49.87 ± 16.44 %
ear swelling rate versus normal group (in words) [1]: significantly lower
Foot swelling [2, 6]: 0.33 ± 0.20 mL
Foot swelling [2, 7]: 0.31 ± 0.10 mL
Foot swelling [2, 8]: 0.29 ± 0.09 mL
Foot swelling [2, 9]: 0.20 ± 0.11 mL
Foot swelling [2, 10]: 0.03 ± 0.11 mL
Foot swelling [2, 11]: 0.28 ± 0.13 mL
Foot swelling [2, 12]: 0.3 ± 0.13 mL
Foot swelling [2, 13]: 0.32 ± 0.09 mL
Foot swelling [2, 14]: 0.21 ± 0.14 mL
Foot swelling (ml) [2, 15]: 0.07 ± 13*^ ml
Foot swelling [2, 16]: 0.30 ± 0.13 mL
Foot swelling [2, 17]: 0.36 ± 0.13 mL
Foot swelling [2, 18]: 0.36 ± 0.09 mL
Foot swelling [2, 19]: 0.19 ± 0.11 mL
Foot swelling [2, 20]: 0.11 ± 0.09 mL
foot volume compared with the model group (in words) ([2]; low-): significantly reduce
Foot swelling [3, 21]: 0.50 ± 0.08 mL
Foot swelling [3, 22]: 0.79 ± 0.07 mL
Foot swelling [3, 23]: 0.63 ± 0.13 mL
Foot swelling [3, 24]: 0.47 ± 0.13 mL
Foot swelling [3, 25]: 0.55 ± 0.11 mL
Foot swelling [3, 26]: 0.79 ± 0.14 mL
Foot swelling [3, 27]: 0.64 ± 0.15 mL
Foot swelling [3, 28]: 0.48 ± 0.12 mL
Foot swelling [3, 29]: 0.65 ± 0.18 mL
Foot swelling [3, 30]: 0.77 ± 0.11 mL
Foot swelling [3, 31]: 0.57 ± 0.15 mL
Foot swelling [3, 32]: 0.48 ± 0.12 mL
foot swelling compared with the normal group (in words) ([3]; low, medium- and high-dose group, 1 h after inflammation): significantly reduce
PGE2 inhibition (%) (PGE2 induced by LPS; RAW 264.7 cells, LPS 100 ng/mL, overnight, test concentration not given): 98.5%
inhibition on PGE2 compared to leflunomide (in words) (PGE2 induced by LPS; compared to leflunomide): stronger
Percentage increase in pain threshold (%) (hot plate pain in mice; [33]): −15.08 ± 37.87%
Percentage increase in pain threshold (%) (hot plate pain in mice; [34]): −16.76 ± 33.81%
Percentage increase in pain threshold (%) (hot plate pain in mice; [35]): −6.95 ± 41.45%
percentage increase in the pain threshold, hot plate (in words) (hot plate pain in mice; 100 mg/kg and 200 mg/kg, 30 and 60 minutes after administration): significantly reduce
Percentage increase in pain threshold (%) (hot plate pain in mice; [36]): −19.99 ± 38.23 %
Percentage increase in pain threshold (%) (hot plate pain in mice; [37]): −34.23 ± 39.23 %
Percentage increase in pain threshold (%) (hot plate pain in mice; [38]): −30.12 ± 27.69 %
Percentage increase in pain threshold (%) (hot plate pain in mice; [39]): −29.65 ± 24.62 %
